From patent US20230190852A1, “COMPOSITIONS AND METHODS FOR JOINT HEALTH” (Unigen, Inc., priority 2013, published 2023)
“And” between values parts separate entries of the source, which are not always exact repeats. Equal values may be shown once. Marks after values point to notes of the source that are not given here.

Tested on: Lewis rats
Assay: Carrageenan-induced rat paw edema model (paw edema and pain sensitivity)
Assay type: in vivo
Details: for Pain sensitivity (Analgesia), percent change vs. vehicle, 1 hr / Paw Edema (Inflammation), percent change vs. vehicle, 1 hr: 1 hr after treatment; for Pain sensitivity (Analgesia), percent change vs. vehicle, 5 hr / Paw Edema (Inflammation), percent change vs. vehicle, 5 hr: 5 hr after treatment; for Pain sensitivity, percent change of vehicle / Paw edema, percent change of vehicle: 200 mg/kg oral 1 hr after carrageenan, female Lewis rats, 200 mg/kg
Procedure: Local inflammation was induced by intraplantar injection of carrageenan λ (Sigma, St. Louis, Mo.; 100 μl of 1% [w/v] in saline) into the plantar surface of right hind paw of sedated rat (with 2.5% isoflurane) at time 0 (T=0) (Gamache et al., J Neurosurg. 65:679, 1986; Guay et al., J. Biol. Chem. 279:24866, 2004; Chou et al., Anesth. Analg. 97:1724, 2003). Rats were acclimated in a procedure room for 20-30 minutes before each measurement was taken. Allodynia was evaluated by measuring responsiveness to the tip of a Randell-Selitto paw pressure test applied perpendicular to the central plantar surface of the right hind paw. A positive response to the applied pressure, noted by sharp withdrawal of the paw, was recorded automatically by an electronic Von Frey Anesthesiometer (2390 series Electrovonfrey, IITC, Woodland Hills, Calif.) (Vivancos et al., Braz. J. Med. Biol. Res. 37:391, 2004). Mechanical allodynia was evaluated before carrageenan inoculation, and thereafter at 1 hr, 2 hr, 4 hr and 6 hr. Paw edema volume was measured with the use of Plethysmometer (IITC, Woodland Hills, Calif.; Model 520) at time 0 (before carrageenan), and then 1 hr, 2 hr, 4 hr, and 6 hr after carrageenan injection. Animals (N=5 per group) were orally gavaged with a positive control ibuprofen (Spectrum Chemical MFG, Gardena, Calif.) (100 or 200 mg/kg); test articles such as: extracts, and combinations of extracts at various doses from 100, 200, 300 to 400 mg/kg and vehicle control (propylene glycol) were given 1 hour after carrageenan inoculation unless specified otherwise.

[1] = 200 mg/kg oral, listed as ibuprofen
[2] = 200 mg/kg oral, 3 hr after treatment

CC(C)Cc1ccc(C(C)C(=O)O)cc1 (centres unmarked) [Ibuprofen]
Pain sensitivity (Analgesia), percent change vs. vehicle, 1 hr (200 mg/kg oral): 55.6* % and 55.1* % and 52.9* % | Paw Edema (Inflammation), percent change vs. vehicle, 1 hr (200 mg/kg oral): 43.5* % and 39.5* % and 44.6* % | Pain sensitivity (Analgesia), percent change vs. vehicle, 1 hr [1]: 55.1% | Paw Edema (Inflammation), percent change vs. vehicle, 1 hr [1]: 39.5% | Pain sensitivity (Analgesia), percent change vs. vehicle, 3 hr [2]: 62.7* % and 70.3* % and 62.5* % | Paw Edema (Inflammation), percent change vs. vehicle, 3 hr [2]: 58.0* % and 50.4* % and 54.9* % | Paw Edema (Inflammation), percent change vs. vehicle, 3 hr (200 mg/kg oral, 3 hr after treatment, listed as ibuprofen): 50.4% | Pain sensitivity (Analgesia), percent change vs. vehicle, 5 hr (200 mg/kg oral): 44.6* % and 50.8* % and 48.8* % | Paw Edema (Inflammation), percent change vs. vehicle, 5 hr (200 mg/kg oral): 50.3* % and 46.6* % and 50.0* % | Pain sensitivity (Analgesia), percent change vs. vehicle, 5 hr [1]: 50.8% | Paw Edema (Inflammation), percent change vs. vehicle, 5 hr [1]: 46.6% | Pain sensitivity, percent change of vehicle (1 hr): 57.1* % and 55.4* % and 56.4* % and 56.1* % and 53.7* % and 52.4* % and 58.6* % | Paw edema, percent change of vehicle (1 hr): 53.2* % and 51.6* % and 53.9* % and 57.2* % and 54.2* % and 53.0* % and 52.5* % | Pain sensitivity, percent change of vehicle (3 hr): 61.5* % and 65.9* % and 62.2* % and 59.7* % and 64.0* % | Paw edema, percent change of vehicle (3 hr): 64.3* % and 61.9* % and 59.0* % and 67.6* % and 57.7* % and 60.1* % and 62.9* % | Pain sensitivity, percent change of vehicle (5 hr): 44.3* % and 49.3* % and 45.0* % and 47.9* % and 47.5* % and 43.3* % and 50.7* % | Paw edema, percent change of vehicle (5 hr): 50.6* % and 50.0* % and 52.6* % and 53.5* % and 48.6* % and 51.3* % and 51.6* %
